Results published in patent publication US5759768A, “Assays for factors affecting circularization of DNA, assays for factors affecting DNA integration, factors, and uses thereof” (priority 1995, dated 1998).
Like-named read-outs stand apart in the source and are kept apart here.

Columns and labels:
[1] = test system: viral DNA integrated into .phi.X174 target DNA; format: biochemical, HIV-1; settings: for Relative activity, % of standard: target DNA 10 μg/ml
Procedure: (§1) The chronically HIV-1 infected Molt IIIB human T cell line (HTLV IIIB virus strain) was the source of virus for cell-free infections. This human T cell line constitutively produces a low level of the HTLV-111B strain of HIV-1. Culture supernatant containing a high concentration of virus was prepared by incubating 300×10^6 Molt IIIB cells in 50 ml fresh RPMI 1640 medium containing 20% fetal calf serum and 10 ng of phorbol 12-myristate 13-acetate per ml for 20-24 hours. […] Cytoplasmic extracts (3 ml) were prepared 4-4.5 hours post-infection, by a modification of the procedure of Brown et al., Cell 49: 342-356 (1987).
(§2) At specified times after infection, cells were washed twice with buffer K (20 mM Hepes, pH 7.4, 150 mM KCl, 5 mM MgCl2, 1 mM dithiothreitol, […]) and then lysed at a concentration of 33×10^6 cells per ml in the same buffer containing 0.025% digitonin or 0.025% Triton X-100. Cells were extracted for 10 minutes at room temperature, and the lysate was centrifuged at 1000×g for 3 minutes, and is referred to as "cytoplasmic extract". Cytoplasmic extract was the source of viral DNA for analyses in the assays described below. The pellet from the initial low-speed centrifugation contained cell debris and intact nuclei and is called the "nuclear pellet". Cell extracts from uninfected SupT1 cells were prepared in the same manner.
(§3) DNA samples were layered on 0.8% agarose gels and electrophoresed at 1 V/cm for 15 hour in Tris/acetate/EDTA buffer. After electrophoresis, DNA was blotted by capillary action onto nitrocellulose (0.45 μm, Schleicher & Schuell).
In Vitro Integration Reaction
Pst I-linearized (replicative form III) .phi.X174 DNA, relaxed circular (replicative form II) .phi.X174 DNA, and single-stranded M13 DNA were used as targets for the in vitro integration of viral DNA. Target DNA was added to cytoplasmic extracts of intected SupT1 cells to a concentration of 10 μg/ml, and reaction mixtures were incubated at […]. Reactions, were stopped by the addition of SDS and proteinase K.
Cytoplasmic extracts prepared from SupT1 cells 4 hours after infection with HIV-1 were incubated with exogenously added target DNA under integration reaction conditions. Products of the reactions were analyzed by Southern blot hybridization. The time course of integration into linear .phi.X174 DNA target was determined. Target DNA was added to the extract and the reaction was stopped after 0,5,15,30, or 45 minutes of incubation at 37° C. (FIG. 11, lanes a-e, respectively). Purified linear viral DNA was incubated for 1 hour at 37° C. with cytoplasmic extract prepared from uninfected SupT1 cells (lane f). […] Arrows in the Figure indicate the positions of viral DNA products. L, linear viral DNA:I, integration product. Integration was detected by the shift of linear viral DNA on Southern blots from the characteristic 9.7-kilobase (kb) position to a position corresponding to viral DNA plus target DNA.

[2] = test system: linear viral DNA (circularization); format: biochemical, HIV-1
Procedure: as §1, §2
Viral DNA present in cytoplasmic extracts was deproteinated by incubation with proteinase K (1 mg/ml)/10 mM EDTA/0.5% SDS for 1 hour at 55° C. Samples were extracted successively with phenol/chloroform [1:1 (vol/vol)] and chloroform. DNA was ethanol-precipitated, washed with 70% ethanol, resuspended in 10 mM Tris.HCI (pH 7.4), and treated with RNase A (20 μpg/ml)for 1 hour at […]. before analysis by agarose gel electrophoresis and Southern blotting.
as §3
Cell extracts were prepared from cells four to five hours after infection with HIV-1, using the above-described methods to yield fully functional viral preintegration complexes. […] In all cases, a HIV-1 LTR-containing DNA fragment was used as a hybridization probe. Therefore, only LTR-containing DNA fragments are detected. […] Lane 5: Unintegrated viral DNA prepared by Hirt extraction of SupT1 cells infected 24 hours earlier with concentrated HIV-1. […] Viral DNA was purified from extracts incubated with 1 mM ATP for 15 minutes (lanes 1 and 4), with 1 mM ATP for 45 minutes (lanes 3 and 6), or with 1 mM ATPγS for 45 minutes (lanes 2 and 5). Lanes 1-3: uncut viral DNA; lanes 4-6: viral DNA was cut with SalI prior to electrophorosis. Lane 7: linear viral DNA, prepared from untreated extracts was digested with SalI prior to electrophorosis. Lane 8: unintegrated viral DNA prepared by Hirt extraction of infected cells, as described with respect to FIG. 14, digested with SalI prior to electrophoresis. […] Lanes 1-3. Viral DNA prepared from extracts treated with 1 mM ATP for 15 minutes, 30 minutes and 45 minutes, respectively. Lane 4: Viral DNA prepared from extract treated with 1 mM ATPγS for 45 minutes. Lanes 5-7: products of reactions shown in lanes 1-3, respectively, digested with SalI and PstI prior to electrophoresis. Lane 8: SalI, PstI digestion of viral DNA prepared from extract treated with 1 mM ATP for 90 minutes. Lane 9: SalI, PstI digestion of reaction products shown in lane 4. Lane 10: SalI, PstI digestion of unintegrated viral DNA prepared by Hirt extraction of infected cells.

Row | SMILES | detectable integration in vitro ([1]; 1 mM EDTA, buffer devoid of added MgCl2) | Relative activity, % of standard ([1]; -Mg2+/+EDTA) | detectable circle formation [2] | Relative activity, % of standard ([1]; KCl 100 mM) | detectable integration in vitro ([1]; KCl 250 mM or greater) | Relative activity, % of standard ([1]; KCl 250 mM) | KCl concentration of most efficient formation of 1-LTR circles ([2]; 1 mM ATP, 37° C., 90 min) | circular forms at KCl concentration ([2]; 100 mM KCl, 1 mM ATP, 90 min) | circular forms at higher salt concentrations ([2]; higher KCl concentrations (lane 6: 250 mM), 1 mM ATP, 90 min) | 1-LTR [KCl] optimum ([2]; table) | Autointegration [KCl] optimum ([2]; table)
1 | O=C(O)CN(CCN(CC(=O)O)CC(=O)O)CC(=O)O [EDTA] | absence of detectable integration | 0 % of standard | abolished detectable circle formation | – | – | – | – | – | – | – | –
2 | [Cl-].[K+] [KCl] | – | – | – | 85 % of standard | completely abolished detectable integration | 0 % of standard | 125 mM | 1-LTR circles were formed almost exclusively | most entirely of the 2-LTR form | 125 mM | 150 to 175 mM
